Results from patent publication EP1059033A1, “INDUSTRIAL ANTIBACTERIAL/ANTIFUNGAL AGENTS, ALGICIDES AND ANTI-BIOLOGICAL ADHESION AGENTS CONTAINING BENZYLAMINES” (Nissan Chemical Industries, Ltd., priority 1998, dated 1999).
Converted amounts (≈) assume the structure as drawn.

Tested on: freshwater green alga (Selenastrum capricornutum)
Assay: Inhibition of propagation of freshwater green alga (Example 4)
Assay type: cell-based
Conditions: 50ppb, after 72 hours, cell number vs non-treated lot, read-out: Propagation inhibiting rate(%) 50ppb
Experimental: A predetermined amount of each of the compounds of the invention was dissolved in a culture medium containing 10^5 /ml of a freshwater green alga (Selenastrum capricornutum) at a logarithmic growth phase to prepare samples having a concentration of the compound of the invention in the medium of 500 ppb and 50ppb respectively. The samples were stationary cultured at 23±1 °C for […] under continuous illumination.
After 72 hours, the number of cells was measured using a hemacytometer to obtain propagation rate. The propagation inhibiting rate was calculated from comparison with the non-treated lot.

Row | SMILES | inhibition at 0.05 ppm [%]
1 | Cc1cc(C)cc(CN(C)Cc2ccc(C(C)(C)C)cc2)c1 [Compound 2] | 84
2 | CC(c1ccccc1Cl)N(C)Cc1ccc(C(C)(C)C)cc1 (centres unmarked) [Compound 9] | 59

Same assay, conditions: 500ppb, after 72 hours, cell number vs non-treated lot, read-out: Propagation inhibiting rate(%) 500ppb

Row | SMILES | inhibition at 0.5 ppm [%]
3 | Cc1cc(C)cc(CN(C)Cc2ccc(C(C)(C)C)cc2)c1 [Compound 2] | 96
4 | CC(c1ccccc1Cl)N(C)Cc1ccc(C(C)(C)C)cc1 (centres unmarked) [Compound 9] | 94

Tested on: Trichophyton mentagrophytes
Assay: not given
Assay type: cell-based
Conditions: 72 h, 100 ppm
Experimental: 31.3 ml of Trichophyton mentagrophytes to be tested was added to 125 ml of a potato dextrose agar culture medium (Nissui Seiyaku Co.). The medium was stirred not to foam the solutions, poured into plates uniformly and solidified.
Thereafter, predetermined amounts of the compounds of the invention were weighted and diluted with acetone to predetermined concentrations.
Paper disks were impregnated with samples containing predetermined amounts of the compounds of the invention, laid on a filter, dried with air and placed on a plate containing test microbe at equal intervals.
Trichophyton mentagrophytes was cultured at 28 °C for 3 days in a thermostatic chamber and the diameter of each inhibiting zone was measured to evaluate the activity of each compound. Symbols in the table mean the followings; • A: Trichophyton mentagrophytes, • ++: strongly inhibiting zone (equal to or more than 21 mm) is observed, • +: inhibiting zone (10 to 20 mm) is observed, • -: no inhibiting zone is observed.

Row | SMILES | Judgment (Target bacteria: A)
5 | Cc1cc(C)cc(CN(C)Cc2ccc(C(C)(C)C)cc2)c1 [Compound 2] | ++ (strongly inhibiting zone (equal to or more than 21 mm) is observed)
6 | CC(c1ccccc1Cl)N(C)Cc1ccc(C(C)(C)C)cc1 (centres unmarked) [Compound 9] | ++ (strongly inhibiting zone (equal to or more than 21 mm) is observed)

Tested on: freshwater blue-green alga (Microcystis aeruginosa)
Assay: Inhibition of propagation of freshwater algae (Example 6)
Assay type: cell-based
Conditions: 500ppb, 72hr, read-out: Propagation inhibiting rate(%) 500ppb 72hr
Experimental: (§1) A predetermined amount each of the compounds of the invention was dissolved in a culture medium containing 10^5 /ml of a freshwater alga at a logarithmic growth phase to prepare samples having a concentration of the compound of the invention in the medium of 500 ppb and 50 ppb respectively. A shaking culture at 100 rpm was performed for […] under continuous illumination at 20±2 °C for freshwater diatom and at 23±2 °C for other algae.
(§2) After 72 hours and 168 hours, the […] of cells was measured using a hemacytometer to obtain propagation rate. The propagation inhibiting rate was calculated from comparison with the non-treated lot. Symbols in the tables mean the followings; • A: freshwater green alga (Chlorella pyrenoidosa), • B: freshwater blue-green alga (Microcystis aeruginosa), • C: freshwater diatom (Diatoma elongatum), • D: freshwater green alga (Scenedesmus pannonicus).

Row | SMILES | inhibition at 0.5 ppm [%]
7 | CC(c1ccccc1Cl)N(C)Cc1ccc(C(C)(C)C)cc1 (centres unmarked) [Compound 9] | 97

Same assay, conditions: 500ppb, 168hr, read-out: Propagation inhibiting rate(%) 500ppb 168hr

Row | SMILES | inhibition at 0.5 ppm [%]
8 | CC(c1ccccc1Cl)N(C)Cc1ccc(C(C)(C)C)cc1 (centres unmarked) [Compound 9] | 98

Tested on: freshwater green alga (Chlorella pyrenoidosa)
Assay: as above
Assay type: cell-based
Conditions: Auxenochlorella pyrenoidosa, 500ppb, 72hr, read-out: Propagation inhibiting rate(%) 500ppb 72hr
Experimental: as §1, §2

Row | SMILES | inhibition at 0.5 ppm [%]
9 | CC(c1ccccc1Cl)N(C)Cc1ccc(C(C)(C)C)cc1 (centres unmarked) [Compound 9] | 70

Tested on: freshwater diatom (Diatoma elongatum)
Assay: as above
Assay type: cell-based
Conditions: Diatoma tenuis, 50ppb, 72hr, read-out: Propagation inhibiting rate(%) 50ppb 72hr
Experimental: as §1, §2

Row | SMILES | inhibition at 0.05 ppm [%]
10 | CC(c1ccccc1Cl)N(C)Cc1ccc(C(C)(C)C)cc1 (centres unmarked) [Compound 9] | 88

Same assay, conditions: Diatoma tenuis, 50ppb, 168hr, read-out: Propagation inhibiting rate(%) 50ppb 168hr

Row | SMILES | inhibition at 0.05 ppm [%]
11 | CC(c1ccccc1Cl)N(C)Cc1ccc(C(C)(C)C)cc1 (centres unmarked) [Compound 9] | 94

Same assay, conditions: Diatoma tenuis, 500ppb, 72hr, read-out: Propagation inhibiting rate(%) 500ppb 72hr

Row | SMILES | inhibition at 0.5 ppm [%]
12 | CC(c1ccccc1Cl)N(C)Cc1ccc(C(C)(C)C)cc1 (centres unmarked) [Compound 9] | 76

Same assay, conditions: Diatoma tenuis, 500ppb, 168hr, read-out: Propagation inhibiting rate(%) 500ppb 168hr

Row | SMILES | inhibition at 0.5 ppm [%]
13 | CC(c1ccccc1Cl)N(C)Cc1ccc(C(C)(C)C)cc1 (centres unmarked) [Compound 9] | 100

Tested on: freshwater green alga (Scenedesmus pannonicus)
Assay: as above
Assay type: cell-based
Conditions: Desmodesmus pannonicus, 500ppb, 72hr, read-out: Propagation inhibiting rate (%) 500ppb 72hr
Experimental: as §1, §2

Row | SMILES | inhibition at 0.5 ppm [%]
14 | Cc1cc(C)cc(CN(C)Cc2ccc(C(C)(C)C)cc2)c1 [Compound 2] | 91

Same assay, conditions: Desmodesmus pannonicus, 500ppb, 168hr, read-out: Propagation inhibiting rate (%) 500ppb 168hr

Row | SMILES | inhibition at 0.5 ppm [%]
15 | Cc1cc(C)cc(CN(C)Cc2ccc(C(C)(C)C)cc2)c1 [Compound 2] | 99
16 | CC(c1ccccc1Cl)N(C)Cc1ccc(C(C)(C)C)cc1 (centres unmarked) [Compound 9] | 85

Tested on: Trichophyton mentagrophytes
Assay: Agar dilution MIC (Example 2)
Assay type: cell-based
Conditions: 168 h, agar plate, 27 °C, 7 days
Experimental: Series of diluted samples (20000, 10000, 5000, 2500, 2000, 1250, 625, 313, 156, 78, 39, 20, 10, 5, 2.5, 1.25 mg/l) of the compounds of the invention were prepared using dimethylsulfoxide. A sensitive culture medium-N (Nissui Seiyaku Co.) was used for bacteria and a potato dextrose agar culture medium (Nissui Seiyaku Co.) was used for fungi. 0.5 ml of each sample was added to and mixed with 9.5 ml of the culture medium, poured into a Petri dish and solidified to obtain a plate. As a result, the concentration of the compounds of the invention in the agar culture medium were 1000, 500, 250, 125, 100, 62.5, 31.3, 15.6, 7.8, 3.9, 2.0, 1.0, 0.5, 0.25, 0.125, 0.062 mg/l. The bacterium inoculated were cultured in a bouillon for the assay of sensitivity (Nissui Seiyaku Co.) at 37 °C for 20 hours, and the fungi were cultured in the potato dextrose agar culture medium (Nissui Seiyaku Co.) for 10 days and then a 10^6 CFU/ml suspension was prepared from each of them. A test bacteria or fungi suspension was streaked on an agar plate containing the compound of the present invention with platinum wire loop, and the agar plate was cultured at 37±1 °C for 18 to 20 hours for bacteria or at 27 °C for 7 days for fungi. A concentration at which no growth was seen was taken as minimum inhibitory concentration [MIC(mg/l)]. Symbols in the table mean the followings; • A: Bacillus subtilis, • B: Trichophyton mentagrophytes, • C: Rhodotorula mucilaginosa.

Row | SMILES | MIC [µg/mL]
17 | CC(c1ccccc1Cl)N(C)Cc1ccc(C(C)(C)C)cc1 (centres unmarked) [Compound 9] | 0.5 (≈ 1.58 µM)

Tested on: Trichophyton mentagrophytes
Assay: Agar dilution MIC (Example 3)
Assay type: cell-based
Conditions: 168 h, agar plate, 27 °C, 7 days
Experimental: (§3) Series of diluted samples (20000, 10000, 5000, 2500, 1250, 625, 313, 156, 78, 39 mg/l) of the compounds of the invention were prepared using dimethylsulfoxide. A sensitive culture medium-N (Nissui Seiyaku Co.) was used for bacteria and a potato dextrose agar culture medium (Nissui Seiyaku Co.) was used for fungi. 0.5 ml of each sample was added to and mixed with 9.5 ml of the culture medium, poured into a Petri dish and solidified to obtain a plate. As a result, the concentration of the compounds of the invention in the agar culture medium were 1000, 500, 250, 125, 62.5, 31.3, 15.6, 7.8, 3.9, 2.0 mg/l. The bacterium inoculated were cultured in a bouillon for the assay of sensitivity (Nissui Seiyaku Co.) at 37 °C for 20 hours, and the fungi were cultured in the potato dextrose agar culture medium (Nissui Seiyaku Co.) for 10 days and then a 10^6 CFU/ml suspension was prepared from each of them. A test bacteria or fungi suspension was streaked on an agar plate containing the compound of the present invention with platinum wire loop, and the agar plate was cultured at 37±1 °C for 18 to 20 hours for bacteria or at 27 °C for 7 days for fungi. A concentration at which no growth was seen was taken as minimum inhibitory concentration (MIC). Symbols in the tables mean the followings; • A: Bacillus subtilis, • B: Trichophyton mentagrophytes, • C: Staphylococcus aureus, • D: Aspergillus niger, • E: Penicillium funiculosum, • F: Candida albicans, • G: Micrococcus luteus, • H: Corynebacterium aquaticum, • I: Chaetomium globosum, • J: Fusarium moniliforme, • K: Saccharomyces cerevisiae, • L: Rhodotorula rubra, • M: Cladosporium cladosporioides, • N: Alternaria alternata.

Row | MIC [µg/mL] | SMILES
18 | < 2 | Cc1cc(C)cc(CN(C)Cc2ccc(C(C)(C)C)cc2)c1 [Compound 2]

Tested on: Corynebacterium aquaticum
Assay: Agar dilution MIC (Example 3)
Assay type: cell-based
Conditions: Leifsonia aquatica, agar plate, 37±1 °C, 18 to 20 hours
Experimental: as §3

Row | MIC [µg/mL] | SMILES
19 | 31.3 (≈ 106 µM) | Cc1cc(C)cc(CN(C)Cc2ccc(C(C)(C)C)cc2)c1 [Compound 2]

Tested on: Saccharomyces cerevisiae
Assay: Agar dilution MIC (Example 3)
Assay type: cell-based
Conditions: 168 h, agar plate, 27 °C, 7 days
Experimental: as §3

Row | MIC [µg/mL] | SMILES
20 | 63 (≈ 213 µM) | Cc1cc(C)cc(CN(C)Cc2ccc(C(C)(C)C)cc2)c1 [Compound 2]

Tested on: Cladosporium cladosporioides
Assay: Agar dilution MIC (Example 3)
Assay type: cell-based
Conditions: 168 h, agar plate, 27 °C, 7 days
Experimental: as §3

Row | MIC [µg/mL] | SMILES
21 | 125 (≈ 423 µM) | Cc1cc(C)cc(CN(C)Cc2ccc(C(C)(C)C)cc2)c1 [Compound 2]

Tested on: Penicillium funiculosum
Assay: Agar dilution MIC (Example 3)
Assay type: cell-based
Conditions: Talaromyces funiculosus, 168 h, agar plate, 27 °C, 7 days
Experimental: as §3

Row | MIC [µg/mL] | SMILES
22 | 31.3 (≈ 106 µM) | Cc1cc(C)cc(CN(C)Cc2ccc(C(C)(C)C)cc2)c1 [Compound 2]

Tested on: Fusarium moniliforme
Assay: Agar dilution MIC (Example 3)
Assay type: cell-based
Conditions: Fusarium verticillioides, 168 h, agar plate, 27 °C, 7 days
Experimental: as §3

Row | MIC [µg/mL] | SMILES
23 | 63 (≈ 213 µM) | Cc1cc(C)cc(CN(C)Cc2ccc(C(C)(C)C)cc2)c1 [Compound 2]

Tested on: Chaetomium globosum
Assay: Agar dilution MIC (Example 3)
Assay type: cell-based
Conditions: 168 h, agar plate, 27 °C, 7 days
Experimental: as §3

Row | MIC [µg/mL] | SMILES
24 | 31.3 (≈ 106 µM) | Cc1cc(C)cc(CN(C)Cc2ccc(C(C)(C)C)cc2)c1 [Compound 2]

Tested on: Aspergillus niger
Assay: Agar dilution MIC (Example 3)
Assay type: cell-based
Conditions: 168 h, agar plate, 27 °C, 7 days
Experimental: as §3

Row | MIC [µg/mL] | SMILES
25 | 125 (≈ 423 µM) | Cc1cc(C)cc(CN(C)Cc2ccc(C(C)(C)C)cc2)c1 [Compound 2]

Tested on: Rhodotorula rubra
Assay: Agar dilution MIC (Example 3)
Assay type: cell-based
Conditions: 168 h, agar plate, 27 °C, 7 days
Experimental: as §3

Row | MIC [µg/mL] | SMILES
26 | 125 (≈ 423 µM) | Cc1cc(C)cc(CN(C)Cc2ccc(C(C)(C)C)cc2)c1 [Compound 2]
